Results taken from US12344600B2, “c-Myc mRNA translation modulators and uses thereof in the treatment of cancer” (Anima Biotech Inc., priority 2022, dated 2025).

System: c-Myc
Test: c-Myc immunofluorescence assay
Format: cell-based, human
Details: A549 cells, 24 hours, anti-c-Myc immunofluorescence
Outline: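 A549 NSCLC cells grown 48 h, then treated 24 h with increasing compound concentrations; fixed in 4% paraformaldehyde, stained with anti-c-Myc antibody plus fluorescent secondary and DAPI. Per-cell c-Myc fluorescence quantified by high-content imaging at 20×; dose-response fitted by logistic regression to give EC50.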

Row | SMILES | Myc Efficacy (−LogEC50)
1 | COc1ccc(-c2noc(C3CCC(C(=O)NCC4CCN(CCO)C4)CC3)n2)cc1 (stereo not shown) [Compound 215, (1s,4s)-N-((1-(2-hydroxyethyl)pyrrolidin-3-yl)methyl)-4-(3-(4-methoxyphenyl)-1,2,4-oxadiazol-5-yl)cyclohexane-1-carboxamide] | + (+ >3 and <5)
2 | COc1ccc(-c2noc(N3CCN(C(=O)N4CCC(Oc5ccccc5)CC4)CC3)n2)cc1 [Compound 216, (4-(3-(4-methoxyphenyl)-1,2,4-oxadiazol-5-yl)piperazin-1-yl)(4-phenoxypiperidin-1-yl)methanone] | + (+ >3 and <5)
3 | COc1ccc(-c2noc(N3CCC(C(=O)NCC4CCN(C)CC4)CC3)n2)cc1 [Compound 217, 1-(3-(4-methoxyphenyl)-1,2,4-oxadiazol-5-yl)-N-((1-methylpiperidin-4-yl)methyl)piperidine-4-carboxamide] | − (− ≤3)
4 | COc1ccc(-c2noc(N3CCC(C(=O)NC4CCN(C)CC4)CC3)n2)cc1 [Compound 218, 1-(3-(4-methoxyphenyl)-1,2,4-oxadiazol-5-yl)-N-(1-methylpiperidin-4-yl)piperidine-4-carboxamide] | − (− ≤3)
5 | COc1ccc(-c2noc(N3CCC(C(=O)NCC4CCN(C)C4)CC3)n2)cc1 (stereo not shown) [Compound 219, 1-(3-(4-methoxyphenyl)-1,2,4-oxadiazol-5-yl)-N-((1-methylpyrrolidin-3-yl)methyl)piperidine-4-carboxamide] | − (− ≤3)
6 | COc1ccc(-c2noc(N3CCC(C(=O)NCC4CCN(CC5CC5)C4)CC3)n2)cc1 (stereo not shown) [Compound 220, N-((1-(cyclopropylmethyl)pyrrolidin-3-yl)methyl)-1-(3-(4-methoxyphenyl)-1,2,4-oxadiazol-5-yl)piperidine-4-carboxamide] | + (+ >3 and <5)
7 | COc1ccc(-c2noc(N3CCN(C(=O)NCC4CCN(CC5CC5)C4)CC3)n2)cc1 (stereo not shown) [Compound 221, N-((1-(cyclopropylmethyl)pyrrolidin-3-yl)methyl)-4-(3-(4-methoxyphenyl)-1,2,4-oxadiazol-5-yl)piperazine-1-carboxamide] | + (+ >3 and <5)
8 | COc1ccc(-c2noc(N3CCC(C(=O)NCC4CCN(C(=O)c5ccc(C)cc5)C4)CC3)n2)cc1 (stereo not shown) [Compound 222, 1-(3-(4-methoxyphenyl)-1,2,4-oxadiazol-5-yl)-N-((1-(4-methylbenzoyl)pyrrolidin-3-yl)methyl)piperidine-4-carboxamide] | ++ (++ ≥5 and <6)
9 | COc1ccc(-c2noc(N3CCC(C(=O)NCC4CCN(Cc5ccc(C)cn5)C4)CC3)n2)cc1 (stereo not shown) [Compound 223, 1-(3-(4-methoxyphenyl)-1,2,4-oxadiazol-5-yl)-N-((1-((5-methylpyridin-2-yl)methyl)pyrrolidin-3-yl)methyl)piperidine-4-carboxamide] | ++ (++ ≥5 and <6)
10 | COc1ccc(-c2noc(N3CCC(C(=O)Nc4ccccc4Cl)CC3)n2)cc1 [Compound 224, N-(2-chlorophenyl)-1-(3-(4-methoxyphenyl)-1,2,4-oxadiazol-5-yl)piperidine-4-carboxamide] | + (+ >3 and <5)
11 | COc1ccc(-c2noc(N3CCN(C(=O)N4CCN(C(C)=O)CC4)CC3)n2)cc1 [Compound 225, 1-(4-(4-(3-(4-methoxyphenyl)-1,2,4-oxadiazol-5-yl)piperazine-1-carbonyl)piperazin-1-yl)ethan-1-one] | − (− ≤3)
12 | COc1ccc(-c2noc(N3CCN(C(=O)N4CCCC(CC(C)C)C4)CC3)n2)cc1 (stereo not shown) [Compound 226, (3-isobutylpiperidin-1-yl)(4-(3-(4-methoxyphenyl)-1,2,4-oxadiazol-5-yl)piperazin-1-yl)methanone] | + (+ >3 and <5)
13 | COc1ccc(-c2noc(N3CCN(C(=O)C4CCCN(CC(C)C)C4)CC3)n2)cc1 (stereo not shown) [Compound 227, (1-isobutylpiperidin-3-yl)(4-(3-(4-methoxyphenyl)-1,2,4-oxadiazol-5-yl)piperazin-1-yl)methanone] | + (+ >3 and <5)
14 | COc1ccc(-c2noc(N3CCC(C(=O)NCCCN4CCN(C(=O)c5ccccc5)CC4)CC3)n2)cc1 [Compound 228, N-(3-(4-benzoylpiperazin-1-yl)propyl)-1-(3-(4-methoxyphenyl)-1,2,4-oxadiazol-5-yl)piperidine-4-carboxamide] | + (+ >3 and <5)
15 | COc1ccc(-c2noc(C3CCC(C(=O)NCC4CC(=O)N(C)C4)CC3)n2)cc1 (stereo not shown) [Compound 229, (1r,4r)-4-(3-(4-methoxyphenyl)-1,2,4-oxadiazol-5-yl)-N-((1-methyl-5-oxopyrrolidin-3-yl)methyl)cyclohexane-1-carboxamide] | + (+ >3 and <5)
16 | CC(=O)Nc1cccc(-c2noc(N3CCC(C(=O)NCC4CCN(Cc5ccc(C)cc5)C4)CC3)n2)c1 (stereo not shown) [Compound 230, 1-(3-(3-acetamidophenyl)-1,2,4-oxadiazol-5-yl)-N-((1-(4-methylbenzyl)pyrrolidin-3-yl)methyl)piperidine-4-carboxamide] | + (+ >3 and <5)

Row | SMILES | Myc Efficacy (−LogEC50)
17 | COc1ccc(-c2noc(N3CCC(C(=O)NCC4CCN(Cc5ccc(C)cc5)C4)CC3)n2)c(Cl)c1 (stereo not shown) [Compound 231, 1-(3-(2-chloro-4-methoxyphenyl)-1,2,4-oxadiazol-5-yl)-N-((1-(4-methylbenzyl)pyrrolidin-3-yl)methyl)piperidine-4-carboxamide] | ++ (++ ≥5 and <6)
18 | COc1ncc(-c2noc(N3CCC(C(=O)NCC4CCN(Cc5ccc(C)cc5)C4)CC3)n2)cn1 (stereo not shown) [Compound 232, 1-(3-(2-methoxypyrimidin-5-yl)-1,2,4-oxadiazol-5-yl)-N-((1-(4-methylbenzyl)pyrrolidin-3-yl)methyl)piperidine-4-carboxamide] | + (+ >3 and <5)
19 | COc1cnc(-c2noc(N3CCC(C(=O)NCC4CCN(Cc5ccc(C)cc5)C4)CC3)n2)cn1 (stereo not shown) [Compound 233, 1-(3-(5-methoxypyrazin-2-yl)-1,2,4-oxadiazol-5-yl)-N-((1-(4-methylbenzyl)pyrrolidin-3-yl)methyl)piperidine-4-carboxamide] | + (+ >3 and <5)
20 | COc1ccc(-c2noc(N3CCC(C(=O)NCC4CCN(c5ccccc5)C4)CC3)n2)cc1 (stereo not shown) [Compound 234, 1-(3-(4-methoxyphenyl)-1,2,4-oxadiazol-5-yl)-N-((1-phenylpyrrolidin-3-yl)methyl)piperidine-4-carboxamide] | + (+ >3 and <5)
21 | COc1ccc(-c2noc(N3CCN(c4nc5ccccc5[nH]4)CC3)n2)cc1 [Compound 235, 5-(4-(1H-benzo[d]imidazol-2-yl)piperazin-1-yl)-3-(4-methoxyphenyl)-1,2,4-oxadiazole] | + (+ >3 and <5)
22 | COc1ccc(-c2noc(N3CCN(C(=O)c4cccc(CN5CCCCC5)c4)CC3)n2)cc1 [Compound 236, (4-(3-(4-methoxyphenyl)-1,2,4-oxadiazol-5-yl)piperazin-1-yl)(3-(piperidin-1-ylmethyl)phenyl)methanone] | ++ (++ ≥5 and <6)
23 | Cc1ccc(CN2CCC(CNC(=O)C3CCN(c4nc(-c5ccc(OC(F)(F)F)cc5)no4)CC3)C2)cc1 (stereo not shown) [Compound 237, N-((1-(4-methylbenzyl)pyrrolidin-3-yl)methyl)-1-(3-(4-(trifluoromethoxy)phenyl)-1,2,4-oxadiazol-5-yl)piperidine-4-carboxamide] | ++ (++ ≥5 and <6)
24 | Cc1ccc(CN2CCC(CNC(=O)C3CCN(c4nc(-c5ccc(OC(F)F)cc5)no4)CC3)C2)cc1 (stereo not shown) [Compound 238, 1-(3-(4-(difluoromethoxy)phenyl)-1,2,4-oxadiazol-5-yl)-N-((1-(4-methylbenzyl)pyrrolidin-3-yl)methyl)piperidine-4-carboxamide] | +++ (+++ ≥6)
25 | O=C(NCCCN1CCC(Cc2ccccc2)CC1)C1CCN(c2nc(-c3ccc(OC(F)(F)F)cc3)no2)CC1 [Compound 239, N-(3-(4-benzylpiperidin-1-yl)propyl)-1-(3-(4-(trifluoromethoxy)phenyl)-1,2,4-oxadiazol-5-yl)piperidine-4-carboxamide] | +++ (+++ ≥6)
26 | O=C(NCCCN1CCC(Cc2ccccc2)CC1)C1CCN(c2nc(-c3ccc(OC(F)F)cc3)no2)CC1 [Compound 240, N-(3-(4-benzylpiperidin-1-yl)propyl)-1-(3-(4-(difluoromethoxy)phenyl)-1,2,4-oxadiazol-5-yl)piperidine-4-carboxamide] | +++ (+++ ≥6)
27 | N#Cc1ccc(-c2noc(N3CCC(C(=O)NCCCN4CCC(Cc5ccccc5)CC4)CC3)n2)cc1 [Compound 241, N-(3-(4-benzylpiperidin-1-yl)propyl)-1-(3-(4-cyanophenyl)-1,2,4-oxadiazol-5-yl)piperidine-4-carboxamide] | +++ (+++ ≥6)
28 | COc1ccc(-c2noc(N3CCC(C(=O)NCC4CCN(C(=O)c5ccc(C)cn5)C4)CC3)n2)cc1 (stereo not shown) [Compound 242, 1-(3-(4-methoxyphenyl)-1,2,4-oxadiazol-5-yl)-N-((1-(5-methylpicolinoyl)pyrrolidin-3-yl)methyl)piperidine-4-carboxamide] | + (+ >3 and <5)
29 | Cc1ccc(CN2CCC(CNC(=O)C3CCN(c4nc(-c5ccc(Cl)cc5)no4)CC3)C2)nc1 (stereo not shown) [Compound 243, 1-(3-(4-chlorophenyl)-1,2,4-oxadiazol-5-yl)-N-((1-((5-methylpyridin-2-yl)methyl)pyrrolidin-3-yl)methyl)piperidine-4-carboxamide] | +++ (+++ ≥6)
30 | Cc1ccc(CN2CCC(CNC(=O)C3CCN(c4nc(-c5ccc(C#N)cc5)no4)CC3)C2)nc1 (stereo not shown) [Compound 244, 1-(3-(4-cyanophenyl)-1,2,4-oxadiazol-5-yl)-N-((1-((5-methylpyridin-2-yl)methyl)pyrrolidin-3-yl)methyl)piperidine-4-carboxamide] | + (+ >3 and <5)
31 | COc1ccc(-c2noc(N3CCN(C(=O)NCCCN4CCC(Oc5ccccc5)CC4)CC3)n2)cc1 [Compound 245, 4-(3-(4-methoxyphenyl)-1,2,4-oxadiazol-5-yl)-N-(3-(4-phenoxypiperidin-1-yl)propyl)piperazine-1-carboxamide] | +++ (+++ ≥6)
